For one compound, IC50 results are on record in patent publication US6313116A, “Benzothiazole compounds and their therapeutic use” (Darwin Discovery, Ltd., priority 2000, dated 2001).

For orientation: IC50 means the midpoint of a concentration-inhibition curve.

The assay addresses phosphodiesterase IV. The assay is described as follows: phosphodiesterase IV inhibitory activity (standard assay procedures). It is filed as biochemical. The following applies: assay not given. The source says: The assays used to confirm the phosphodiesterase IV inhibitory activity of compounds of formula (I) are standard assay procedures as disclosed by Schilling et al, Anal. Biochem. 216:154 (1994), Thompson and Strada, Adv. Cycl. Nucl. Res. 8:119 (1979) and Gristwood and Owen, Br. J. Pharmacol. 87:91P (1986).

For `CCc1nc2c(OC)ccc(C(=O)Nc3ccnn3C)c2s1` [Example 5, 2-Ethyl-4-methoxybenzothiazole-7-carboxylic acid (2-methyl-2H-pyrazol-3-yl)amide], the 50% inhibitory concentration (IC50) worked out at 17 nM.
